The values that follow come from patent US11999727B2 (Tango Therapeutics, Inc., priority 2020, dated 2024).

The target in experiment [1] is T1, PRMT5 (Homo sapiens, UniProt O14744).
T1 construct: purchased Viva (custom protein)
Put plainly: PRMT5 biochemical IC50 assay with SAM as cofactor. To be noted: PRMT5, SAM as cofactor; read-out: SAM IC50.

Experiment [2] concerns HAP1 MTAP-deleted cell line. Briefly: SDMA in-cell western assay, HAP1 MTAP-deleted. The experiment is classed as cell-based. The settings on record: for IC50: Homo sapiens, HAP1, SDMA in-cell western, HAP1 MTAP-deleted, read-out: HAP1 MTAP deleted IC50; for MTAP intact/deleted ratio: IC50 ratio HAP1 MTAP-intact / HAP1 MTAP-deleted, SDMA in-cell western. The essentials: (§1)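 MTAP-null vs endogenous-MTAP HAP1 isogenic cells; in-cell western SDMA readout; IC50 per line.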

Experiment [3] relates to HAP1 MTAP-deleted cell line. Briefly: Viability assay, MTAP-deleted cell line. The experiment is classed as cell-based. The settings on record: Homo sapiens, HAP1, viability assay, MTAP-deleted cell line; read-out: HAP1 MTAP deleted viability. The source says:
Table 1 additionally indicates IC50 values in a viability assay for the MTAP-deleted cell line (column 10), indicating the effect of treatment with compound on cell survival.

Experiment [4] concerns the target T1, PRMT5. Briefly: PRMT5 biochemical IC50 assay with MTA as cofactor. To be noted: PRMT5, MTA as cofactor; read-out: MTA IC50.
Experiment [5] relates to HAP1 MTAP-intact cell line. Put plainly: SDMA in-cell western assay, HAP1 MTAP-intact. The experiment is classed as cell-based. The settings on record: Homo sapiens, HAP1, SDMA in-cell western, HAP1 MTAP-intact; read-out: MTAP HAP1 intact IC50. The essentials: as §1
In experiment [6] the target is T1, PRMT5. Put plainly: PRMT5 biochemical IC50 assay with no cofactor. To be noted: PRMT5, no cofactor; read-out: No Cofactor/rel IC50. From the text: Table 1 indicates IC50 values (μM) against PRMT5 for exemplary compounds in the presence of SAM as cofactor, with no cofactor, and with MTA as cofactor, respectively (columns 4-6). […] Ki values can be calculated from the IC50 values as described in the Examples section. As detailed in the Examples section, for the assay performed in the presence of SAM, IC50=Ki×1.5 (Ki=IC50/1.5).

T1 sequence (O14744 whole entry): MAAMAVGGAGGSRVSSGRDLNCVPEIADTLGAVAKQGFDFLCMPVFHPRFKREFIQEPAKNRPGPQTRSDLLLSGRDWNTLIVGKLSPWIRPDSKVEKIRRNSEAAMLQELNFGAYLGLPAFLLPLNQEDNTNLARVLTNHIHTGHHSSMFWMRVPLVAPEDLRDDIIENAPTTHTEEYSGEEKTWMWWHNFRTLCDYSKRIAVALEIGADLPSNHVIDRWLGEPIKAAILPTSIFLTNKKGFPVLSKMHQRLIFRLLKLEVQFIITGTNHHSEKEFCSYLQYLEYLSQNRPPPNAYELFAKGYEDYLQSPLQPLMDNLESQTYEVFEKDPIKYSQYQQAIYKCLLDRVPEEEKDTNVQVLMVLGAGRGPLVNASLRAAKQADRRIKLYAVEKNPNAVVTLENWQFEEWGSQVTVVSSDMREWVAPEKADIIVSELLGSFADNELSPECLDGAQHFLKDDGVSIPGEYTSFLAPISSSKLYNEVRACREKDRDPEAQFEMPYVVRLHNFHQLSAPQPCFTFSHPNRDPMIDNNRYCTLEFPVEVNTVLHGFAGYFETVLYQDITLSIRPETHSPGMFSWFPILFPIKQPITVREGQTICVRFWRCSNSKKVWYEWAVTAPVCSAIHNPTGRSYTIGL
T1 sequence (Q9BQA1 whole entry partner): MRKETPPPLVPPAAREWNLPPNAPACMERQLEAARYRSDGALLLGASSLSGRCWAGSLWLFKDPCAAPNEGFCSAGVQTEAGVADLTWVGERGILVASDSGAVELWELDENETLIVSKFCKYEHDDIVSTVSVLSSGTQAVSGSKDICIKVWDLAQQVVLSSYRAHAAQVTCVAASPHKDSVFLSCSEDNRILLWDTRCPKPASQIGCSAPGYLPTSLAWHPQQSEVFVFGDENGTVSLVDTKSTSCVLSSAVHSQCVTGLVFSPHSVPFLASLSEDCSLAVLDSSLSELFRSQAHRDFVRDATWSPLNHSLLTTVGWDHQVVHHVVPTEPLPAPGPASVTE

On to `COc1ncc(NC(=O)C(=O)N2C[C@@H](C)CC[C@@H]2c2ccc3c(c2)CC(=O)N3)cc1C(N)=O` (single isomer, unassigned) [Compound 454], for which the IC50 on PRMT5 [1] is 50 to 500 nM; in experiment [2], less than 100 nM; in experiment [3], less than 1000 nM; at PRMT5 [4], less than 50 nM; in experiment [5], 100 to 1000 nM; at PRMT5 [6], less than 50 nM. Besides, the MTAP intact/deleted ratio entry in experiment [2] was “A (an IC50 ratio greater than or equal to 10 fold)”.
For the compound `C[C@@H]1CC[C@@H](c2ccc(NCC(F)(F)F)cc2)N(C(=O)C(=O)Nc2cncc(C(N)=O)c2)C1` (single isomer, unassigned) [Compound 455], the IC50 at PRMT5 [1] was 50 to 500 nM; in experiment [2] it was 100 to 1000 nM; in experiment [3], 1000 to 10000 nM; at PRMT5 [4], less than 50 nM; in experiment [5], greater than 1000 nM; on PRMT5 [6], 50 to 500 nM. Further, the MTAP intact/deleted ratio result in experiment [2] was “A (an IC50 ratio greater than or equal to 10 fold)”.
On to `C[C@H]1CN(C(=O)C(=O)Nc2cncc(C(N)=O)c2)[C@H](c2ccccc2)CC1(F)F` (single isomer, unassigned) [Compound 457], for which the IC50 at PRMT5 [1] is 50 to 500 nM; in experiment [2] it was less than 100 nM; in experiment [3] it was less than 1000 nM; on PRMT5 [4], less than 50 nM; in experiment [5], greater than 1000 nM; on PRMT5 [6], 50 to 500 nM. Besides, the MTAP intact/deleted ratio entry in experiment [2] is “A (an IC50 ratio greater than or equal to 10 fold)”.
For the compound `Cc1cc(NC(=O)C(=O)N2C[C@H](C)CC[C@H]2c2ccc(F)c(F)c2)cnc1N` (single isomer, unassigned) [Compound 458], the IC50 at PRMT5 [1] is 50 to 500 nM; in experiment [2] it was less than 100 nM; in experiment [3], 1000 to 10000 nM; on PRMT5 [4], less than 50 nM; in experiment [5] it was 100 to 1000 nM; on PRMT5 [6], less than 50 nM. Further, the MTAP intact/deleted ratio result in experiment [2] was “A (an IC50 ratio greater than or equal to 10 fold)”.
For the compound `COc1ncc(NC(=O)C(=O)N2C[C@@H](C)CC[C@@H]2c2ccc(N)nc2)cc1C(N)=O` (single isomer, unassigned) [Compound 460], the IC50 at PRMT5 [1] is 50 to 500 nM; in experiment [2], less than 100 nM; in experiment [3], less than 1000 nM; at PRMT5 [4] it was less than 50 nM; in experiment [5], greater than 1000 nM; at PRMT5 [6], less than 50 nM. Besides, the MTAP intact/deleted ratio result in experiment [2] is reported as “A (an IC50 ratio greater than or equal to 10 fold)”.
Regarding `Cc1cc(NC(=O)C(=O)N2C[C@H](C)CC[C@H]2c2ccc(N)cc2)cnc1N` (single isomer, unassigned) [Compound 461], the IC50 at PRMT5 [1] is 50 to 500 nM; in experiment [2], less than 100 nM; in experiment [3], less than 1000 nM; at PRMT5 [4] it was less than 50 nM; in experiment [5], 100 to 1000 nM; at PRMT5 [6], less than 50 nM. Also, the MTAP intact/deleted ratio result in experiment [2] is listed as “B (an IC50 ratio greater than or equal to 3 fold but lower than 10 fold)”.
For the compound `C[C@H]1CC[C@H](c2ccc(NS(C)(=O)=O)cc2)N(C(=O)C(=O)Nc2cncc(C(N)=O)c2)C1` (single isomer, unassigned) [Compound 462], the IC50 on PRMT5 [1] is 50 to 500 nM; in experiment [2], 100 to 1000 nM; in experiment [3], 1000 to 10000 nM; on PRMT5 [4], less than 50 nM; in experiment [5], greater than 1000 nM; at PRMT5 [6] it was 50 to 500 nM. For the same compound, in experiment [2], the MTAP intact/deleted ratio entry is listed as “A (an IC50 ratio greater than or equal to 10 fold)”.
As for `COc1ncc(NC(=O)C(=O)N2C[C@@H](C)CC[C@@H]2c2ccc3[nH]ncc3c2)cc1C(N)=O` (single isomer, unassigned) [Compound 464], the IC50 is 50 to 500 nM at PRMT5 [1]; less than 100 nM in experiment [2]; less than 1000 nM in experiment [3]; less than 50 nM at PRMT5 [4]; 100 to 1000 nM in experiment [5]; less than 50 nM on PRMT5 [6]. Moreover, the MTAP intact/deleted ratio result in experiment [2] is listed as “A (an IC50 ratio greater than or equal to 10 fold)”.
Regarding `COc1ncc(NC(=O)C(=O)N2C[C@H](C)CC[C@H]2c2ccc3[nH]ncc3c2)cc1C(N)=O` (single isomer, unassigned) [Compound 465], the IC50 on PRMT5 [1] is greater than 500 nM; in experiment [2] it was greater than 1000 nM; in experiment [3], greater than 10000 nM; at PRMT5 [4], greater than 500 nM; in experiment [5] it was greater than 1000 nM; at PRMT5 [6], greater than 500 nM. Further, the MTAP intact/deleted ratio result in experiment [2] is reported as “B (an IC50 ratio greater than or equal to 3 fold but lower than 10 fold)”.
For the compound `C[C@H]1CC[C@H](c2csc3ccccc23)N(C(=O)C(=O)Nc2cncc(C(N)=O)c2)C1` (single isomer, unassigned) [Compound 466], the IC50 on PRMT5 [1] is greater than 500 nM; in experiment [2], greater than 1000 nM; in experiment [3] it was greater than 10000 nM; on PRMT5 [4], greater than 500 nM; in experiment [5], greater than 1000 nM; at PRMT5 [6], greater than 500 nM. In addition, in experiment [2], the MTAP intact/deleted ratio result is on record as “C (an IC50 ratio of less than 3 fold)”.
On to `CNc1ccc([C@H]2CC[C@@H](C)CN2C(=O)C(=O)Nc2cnc(OC)c(C(N)=O)c2)cn1` (single isomer, unassigned) [Compound 467], for which the IC50 at PRMT5 [1] was greater than 500 nM; in experiment [3] it was greater than 10000 nM; at PRMT5 [4], greater than 500 nM; in experiment [5] it was greater than 1000 nM; on PRMT5 [6] it was greater than 500 nM. Moreover, the MTAP intact/deleted ratio entry in experiment [2] is “C (an IC50 ratio of less than 3 fold)”.
Regarding `CNc1ccc([C@@H]2CC[C@H](C)CN2C(=O)C(=O)Nc2cnc(OC)c(C(N)=O)c2)cn1` (single isomer, unassigned) [Compound 468], the IC50 on PRMT5 [1] was greater than 500 nM; in experiment [2], greater than 1000 nM; in experiment [3] it was greater than 10000 nM; at PRMT5 [4], greater than 500 nM; in experiment [5] it was greater than 1000 nM; at PRMT5 [6], greater than 500 nM. In experiment [2], the MTAP intact/deleted ratio result is listed as “C (an IC50 ratio of less than 3 fold)”.
In the case of `C[C@@H]1CC[C@@H](c2ccc(NS(C)(=O)=O)cc2)N(C(=O)C(=O)Nc2cncc(C(N)=O)c2)C1` (single isomer, unassigned) [Compound 469], the IC50 on PRMT5 [1] was greater than 500 nM; in experiment [2], greater than 1000 nM; in experiment [3], greater than 10000 nM; on PRMT5 [4], greater than 500 nM; in experiment [5], greater than 1000 nM; on PRMT5 [6], greater than 500 nM. Further, the MTAP intact/deleted ratio result in experiment [2] is “C (an IC50 ratio of less than 3 fold)”.
On to `COc1ncc(NC(=O)C(=O)N2C[C@H](C)CC[C@H]2c2ccc(N)nc2)cc1C(N)=O` (single isomer, unassigned) [Compound 471], for which the IC50 at PRMT5 [1] was greater than 500 nM; in experiment [2] it was greater than 1000 nM; in experiment [3], greater than 10000 nM; on PRMT5 [4], greater than 500 nM; in experiment [5], greater than 1000 nM; on PRMT5 [6], greater than 500 nM. Also, in experiment [2], the MTAP intact/deleted ratio result was “C (an IC50 ratio of less than 3 fold)”.
For `Cc1cc(NC(=O)C(=O)N2C[C@@H](C)CC[C@@H]2c2ccc(F)c(F)c2)cnc1N` (single isomer, unassigned) [Compound 472], the IC50 at PRMT5 [1] is greater than 500 nM; in experiment [2], greater than 1000 nM; in experiment [3], greater than 10000 nM; at PRMT5 [4], greater than 500 nM; in experiment [5], greater than 1000 nM; on PRMT5 [6], greater than 500 nM. Also, the MTAP intact/deleted ratio result in experiment [2] is recorded as “C (an IC50 ratio of less than 3 fold)”.
For the compound `C[C@@H]1CN(C(=O)C(=O)Nc2cncc(C(N)=O)c2)[C@@H](c2ccccc2)CC1(F)F` (single isomer, unassigned) [Compound 473], the IC50 on PRMT5 [1] is greater than 500 nM; in experiment [2], greater than 1000 nM; in experiment [3] it was greater than 10000 nM; on PRMT5 [4], greater than 500 nM; in experiment [5], greater than 1000 nM; at PRMT5 [6] it was greater than 500 nM. Also, the MTAP intact/deleted ratio entry in experiment [2] is given as “C (an IC50 ratio of less than 3 fold)”.
For the compound `C[C@@H]1CC[C@@H](c2ccc(F)c(F)c2)N(C(=O)C(=O)Nc2cncc(C(N)=O)c2)C1` (single isomer, unassigned) [Compound 474], the IC50 on PRMT5 [1] is greater than 500 nM; in experiment [2], greater than 1000 nM; in experiment [3], greater than 10000 nM; at PRMT5 [4] it was greater than 500 nM; in experiment [5] it was greater than 1000 nM; on PRMT5 [6], greater than 500 nM. The MTAP intact/deleted ratio entry in experiment [2] is “C (an IC50 ratio of less than 3 fold)”.
On to `C[C@H]1CC[C@H](c2ccc(F)c(F)c2)N(C(=O)C(=O)Nc2cncc(C(N)=O)c2)C1` (single isomer, unassigned) [Compound 475], for which the IC50 at PRMT5 [1] is 50 to 500 nM; in experiment [2] it was 100 to 1000 nM; in experiment [3] it was 1000 to 10000 nM; at PRMT5 [4], less than 50 nM; in experiment [5], greater than 1000 nM; on PRMT5 [6] it was 50 to 500 nM. Moreover, the MTAP intact/deleted ratio entry in experiment [2] is “A (an IC50 ratio greater than or equal to 10 fold)”.
As to `C[C@@H]1CC[C@@H](c2cc(F)c(F)c(F)c2)N(C(=O)C(=O)Nc2cncc(C(N)=O)c2)C1` (single isomer, unassigned) [Compound 476], the IC50 at PRMT5 [1] was greater than 500 nM; in experiment [2] it was greater than 1000 nM; in experiment [3], greater than 10000 nM; at PRMT5 [4], greater than 500 nM; in experiment [5] it was greater than 1000 nM; at PRMT5 [6], greater than 500 nM. Also, the MTAP intact/deleted ratio result in experiment [2] is on record as “C (an IC50 ratio of less than 3 fold)”.
